Results taken from US20230088286A1, “USP7 INHIBITOR FOR USE IN THE TREATMENT OF CANCER” (ALMAC DISCOVERY LIMITED, priority 2020, published 2023).
Residues, ends and D or L forms follow the SMILES beside them. *: point of attachment. Cbz = O=C(OCc1ccccc1)*

Tests used:
[1] = system: activated primary fibroblasts WI38, IMR90 and HDF; assay: sVEGF ELISA in activated primary fibroblasts; format: cell-based, human; conditions: cancer cells, immortalized fibroblasts and FGF-2 activated primary fibroblasts, normoxia or hypoxia, 48 hours
From the text: FIG. 5: USP7 inhibition decreased secreted VEGF levels in activated fibroblasts. The USP7-mediated decrease in VEGF secretion observed in the co-cultures can be solely attributed to modulation of secreted VEGF in primary fibroblasts.
(FIG. 4). […] During the wound healing process or following stimulation by acute or chronic inflammatory signals, fibroblasts acquire an activated phenotype (referred to as myofibroblasts). Once activated, myofibroblasts proliferate and migrate, show contractile activity, exert physical forces to modify tissue architecture and become transcriptionally active leading to the secretion of cytokines, chemokines and extra-cellular matrix (ECM) components. In the tumour microenvironment, the majority of residual fibroblasts become activated and are known as cancer associated fibroblasts (CAF). In order to generate a myofibroblast phenotype, WI38, IMR90 and HDF were co-cultured with anti-CD3/anti-CD28 stimulated PBMCs or were stimulated by FGF-2 or TGFβ. […] The USP7 inhibitor-mediated decrease in VEGF secretion was only observed in primary fibroblasts; immortalized lung fibroblasts (WI38-VA13) were insensitive to USP7 inhibitor treatment, probably due to the destabilized p53 in the SV-40 immortalized fibroblasts (FIG. 7).
(§1) For the co-culture experiments, 5×10^4 cancer cells were seeded in transwell in 0.5 mL complete growth medium and placed on the top of 0.1×10^6 fibroblasts plated in 12-well in 1 mL low serum growth media overnight. Following day cancer cells were washed with PBS and media replaced with reduced (1%) serum growth media. 0.5×10^6 PBMC were plated on top of fibroblasts, incubated for 45 min and activated with CD3 (1 μg/ml final concentration) and CD28 (5 μg/ml final concentration). […] Monoculture experiments, 0.1×10^6 cells were seeded in 12-well in 1 mL of complete growth media (cancer cells) or low serum growth media (fibroblasts) and incubated overnight. […] Afterwards, cell culture media was collected, cell debris were removed by centrifugation the concentration of VEGF in the cell culture supernatants was measured using the human/mouse VEGF immunoassay Quantikine ELISA kit (R&D systems, Minneapolis, Minn., USA) according to the manufacturer's instructions. For the intracellular VEGF detection, total protein concentration was determined by BCA (Pierce Chemical, USA) and VEGF levels determined using the same kit described above.

[2] = system: primary human fibroblasts (HDF) in hypoxic chamber; assay: sVEGF ELISA in primary fibroblasts under hypoxia; format: cell-based; conditions: 48 h
From the text: FIG. 9: USP7 inhibition decreases VEGF levels in fibroblasts under hypoxia.
In response to wounding and during tumour growth, activated fibroblasts secrete synthesizers and modifiers of the ECM but also soluble angiogenic growth factors such as VEGF. Although VEGF gene expression can be controlled by multiple transcription factors, its major regulator is hypoxia-inducible factor 1 (HIF-1). HIF-1 mediates activation of VEGF transcription in response to hypoxia in solid tumours and in various malignant cell lines.
To assess its potency in a functional assay, HDF were treated with vehicle or various concentrations of USP7 inhibitor ADC-159 and incubated for 48 hours in hypoxic chamber. Cell culture supernatants were collected, and secreted VEGF was measured by ELISA.
as §1

MMP-2 = MMP-2 in supernatants of HDF and HUVEC co-culture (Luminex); format: cell-based, human; conditions: supernatants after 14 days
Experimental: Cell culture supernatants from tube formation were collected and MMP-2 levels were measured using Luminex®.
Next, the underlying mechanism of tube formation inhibition was investigated. […] To determine whether secretion of MMP-2 is modulated by USP7 inhibition, supernatants from HUVEC and HDF co-cultures were collected after 14 days.
(§2) Concentrations of MMP2 and MMP7 were determined in cell culture supernatants in triplicates using Luminex human cytokine/chemokine multiplex kits (Millipore, St. Charles, Mo., USA) according to the manufacturer's protocol.

MMP-7 = MMP-7 in supernatants of HDF invasion assay (Luminex); format: cell-based, human; conditions: invading HDF, 96 hours
Experimental: The scratch wound cell invasion assay was used to measure the ability of primary human fibroblasts to invade through Matrigel® basement membrane. Cell culture supernatants from invasion assay were collected after 96 hours and MMP-7 levels were measured using Luminex®.
To further explore whether USP7 inhibition modulates MMP levels in invading fibroblasts, cell culture supernatants from HDF invasion assay were collected and presence of various MMP was detected using Luminex® Multiplex assay.
as §2

HIF-1α = assay: Ubiquitination assay, TUBE pull-down of polyubiquitinated HIF-1α; format: cell-based, human; conditions: HDF, hypoxia; AD-04 1 μM, MG132 10 μM, 1 hour
Experimental: Given HIF-1α stability is known to be regulated at the protein level by ubiquitination, we investigated whether USP7 inhibition modulates HIF-1α polyubiquitination. […] Cells were harvested, lysed and polyubiquitinated proteins pulled down using two types of Tetra Ubiquitin Binding Entities (TUBES); with equal affinity for K48/K63 or 10 times more affinity for […]. Samples were analysed by immuno-blot using a HIF-1α antibody. […] These findings indicate that USP7 inhibition results in K48 polyubiquitination of HIF-1α and consequently, its proteasomal-mediated degradation.
Cells were lysed in a buffer containing 50 mM Tris-HCl, pH 7.5, 150 mM NaCl, 1 mM EDTA, 1% NP-40, 10% Glycerol, 50 mM NaF, 5 mM sodium pyrophosphate, 10 mM glycerol phosphate, 1 mM sodium orthovanadate, protease and phosphatase inhibitor tablet and 50 uM PR-619. Lysates were pre-cleared by centrifugation at 4° C. for 15 mins at 16,000× g and protein concentration determined using BCA method. 20 ul of samples was taken as input. Pre-cleared supernatant containing 0.5 mg of total protein was added to 20 ul equilibrated Agarose-TUBE 1 or TUBE 2 beads (Life Sensors) and incubated for 2 hours at 4° C. on a rocker platform. Beads were collected by low speed centrifugation (1000-5000× g, 4° C.) for 5 minutes and supernatant taken as FT. Beads were washed twice with 1 ml TBS-T (20 mM Tris-HCl, pH 8.0, 0.15M NaCl, 0.1% Tween-20) and collected by low speed centrifugation. Finally, beads were resuspended in 30 ul of SDS reducing sample buffer and boiled for 10 min at 95° C.

[3] = system: CT-26 cells in BALB/C mice; assay: CT-26 syngeneic tumour model (AD-04 study)
Experimental: FIG. 30: Effect of USP7 on the tumour microenvironment in vivo.
For subcutaneous tumour implantation, CT26 cells were injected subcutaneously (1×10^6cells in 200 μL of RPMI) in the right flank of 8- to 10-week-old BALB/c female mice. […] Tumour volume (in mm^3) was measured twice a week with a digital caliper and calculated by the following formula: volume=(width)^2×length/2. Body weight was measured twice a week. […]

Compound | secretion of VEGF (benchmark against MDM2 antagonists) [1] | VEGF secretion under hypoxia [2] | also measured
CCOc1cc(C(C)(C)C)ccc1C1=N[C@@](C)(c2ccc(Cl)cc2)[C@@](C)(c2ccc(Cl)cc2)N1C(=O)N1CCN(CCCS(C)(=O)=O)CC1 [RG7112] | not able to modulate | – | –
COc1ccc(C2=N[C@@H](c3ccc(Cl)cc3)[C@@H](c3ccc(Cl)cc3)N2C(=O)N2CCNC(=O)C2)c(OC(C)C)c1 [Nutlin-3a] | not able to modulate | – | –
O=C(c1cnc(C2CC2)o1)N1CCC(O)(Cn2cnc3c(cc(Cl)n3-c3ccc4c(c3)OCC4)c2=O)CC1 [ADC-199, 6-Chloro-3-((1-(2-cyclopropyloxazole-5-carbonyl)-4-hydroxypiperidin-4-yl)methyl)-7-(2,3-dihydrobenzofuran-6-yl)-3,7-dihydro-4H-pyrrolo[2,3-d]pyrimidin-4-One] | – | Comparable results | –
CC1(C(=O)N2CCC(O)(Cn3cnc4c(cc(Cl)n4-c4ccc5c(c4)OCO5)c3=O)CC2)CC1 [ADC-556, 7-(Benzo[d][1,3]dioxol-5-yl)-6-chloro-3-((4-hydroxy-1-(1-methylcyclopropane-1-carbonyl)piperidin-4-yl)methyl)-3,7-dihydro-4H-pyrrolo[2,3-d]pyrimidin-4-One] | – | Comparable results | –
CC1(C(=O)N2CCC(O)(Cn3cnc4c(cc(Cl)n4-c4ccc5c(c4)OCC5)c3=O)CC2)CC1 [ADC-198, 6-Chloro-7-(2,3-dihydrobenzofuran-6-yl)-3-[[4-hydroxy-1-(1-methylcyclopropanecarbonyl)-4-piperidyl]methyl]pyrrolo[2,3-d]pyrimidin-4-One] | – | Comparable results | –
Avastin: anti-VEGF monoclonal antibody bevacizumab [reference compound] | – | – | MMP-2 levels (MMP-2): did not have significant impact; MMP-7 levels (MMP-7): did not have significant effect
CC(C)C[C@@H](C=O)NC(=O)[C@H](CC(C)C)NC(=O)[C@H](CC(C)C)NC(=O)OCc1ccccc1 [MG132, reference compound] (Cbz-Leu-Leu-Leu-aldehyde) | – | – | K63/K48 polyubiquitinated HIF-1α (HIF-1α): increased polyubiquitination
CC(C)(C)C[C@@H]1N[C@@H](C(=O)N[C@H]2CC[C@H](O)CC2)[C@H](c2cccc(Cl)c2F)[C@]12C(=O)Nc1cc(Cl)ccc12 [SAR405838] | not able to modulate | – | –
O=C(c1cnc(C2CC2)o1)N1CCC(O)(Cn2cnc3c(cc(Cl)n3-c3ccc4c(c3)CCO4)c2=O)CC1 [ADC-160, 6-Chloro-3-((1-(2-cyclopropyloxazole-5-carbonyl)-4-hydroxypiperidin-4-yl)methyl)-7-(2,3-dihydrobenzofuran-5-yl)-3,7-dihydro-4H-pyrrolo[2,3-d]pyrimidin-4-One] | – | Comparable results | –
CNC(=O)c1cc(Oc2ccc(NC(=O)Nc3ccc(Cl)c(C(F)(F)F)c3)cc2)ccn1 [Sorafenib, reference compound] | – | – | tumour growth inhibition ([3]; highest AD-04 dose (subcutaneous infusion), Sorafenib oral positive control, day 15 post tumour implantation): 58%; tolerability, bodyweight of tumour-bearing mice ([3]; mouse, in vivo): no significant bodyweight loss
